Assay results taken from PMC11845477, “Exploring the principles behind antibiotics with limited resistance” (Nature Communications, 2025).
Where two headings read alike, the source gives them in different places. Where a SMILES comes first, the peptide text is derived from it. Bridges are numbered along the chain shown (N, C = ends). [ ]: non-standard residue; d: D form. The star is where a group is joined. X1 = NC[C@@H](CC(=O)*)c1cccc(Cl)c1; X2 = CC[C@H](C)CCCCC(=O)*; Dab = NCC[C@H](N)C(=O)O; Dap = NC[C@H](N)C(=O)O

How the values were obtained:
[1] = system: T1, Pseudomonas aeruginosa ATCC BAA 3107; assay: microbe, parasite or virus in culture; parameters: CLSI broth microdilution MIC; OD600 < 0.05 counted as complete growth inhibition; conditions: Pseudomonas aeruginosa, BAA3107, 18 h; read-out: MIC of ancestor
T1 construct: ATCC BAA-3107
Method: A final concentration of 5 × 10^5 bacterial cells per mL were inoculated into each well containing 60 µL MHB medium. Bacterial cultures were incubated at 37 °C with continuous shaking (Infors shaker, 900 rpm with 3 mm throw) for 18 hours (2 replicates from each). Cell growth was monitored by measuring the optical density (OD600 values, using Biotek Synergy microplate reader). MIC was defined as the antibiotic concentration of complete growth inhibition (i.e., OD600 < 0.05). Relative MIC was calculated as follows:1 relativeMIC=MICevolved/MICancestor This study focused on multiple bacterial strains, as follows. For the FoR and ALE experiments, 2 strains per species were chosen: E. coli ATCC 25922, K. pneumoniae ATCC 10031, A. baumannii ATCC 17978, and P. aeruginosa ATCC BAA-3107 as sensitive (SEN) strains, and E. coli NCTC13846, K. pneumoniae ATCC 700603, A. baumannii ATCC BAA-1605 and P. aeruginosa LESB58 as multi-drug resistant (MDR) strains. Functional metagenomic screens were performed with E. coli ATCC 25922 and K. pneumoniae ATCC 10031 strains. To determine the dose-kill properties of the different antibiotics, an E. coli strain (ATCC 25922) expressing a yellow fluorescent protein (pZS2R, YFP, CHL^R) and a red fluorescent protein (pZS2R, mCherry, CHL^R) was used.

[2] = system: K. pneumoniae ATCC 10031 (SEN) and K. pneumoniae ATCC 700603 (MDR); parameters: method as in PMID 39805953; conditions: K. pneumoniae sensitive strain; cited from earlier work
[3] = system: P. aeruginosa ATCC BAA-3107 (SEN) and P. aeruginosa LESB58 (MDR); conditions: cited from earlier work
Excerpt: page 10: Mobile resistance genes against DT permeabilizer were rare in human-associated microbiomes and clinically relevant pathogens, while they were abundant against ST permeabilizers.

[4] = system: polymyxin B-resistant lines of P. aeruginosa (PA-SEN); assay: Cross-resistance of polymyxin B resistant evolved lines, relative MIC; format: cell-based, Pseudomonas aeruginosa
Excerpt: (§1) To further investigate potential overlaps in resistance mechanisms, we examined the extent of cross-resistance between polymyxin B and other antibiotics that target the bacterial membrane.
(§2) Fig. 7 Cross-resistance of polymyxin B resistant lines to ST and DT permeabilizer antibiotics. […] 3 independently evolved lines from each investigated species were studied, including E. coli (EC), K. pneumoniae (KP), A. baumannii (AB), and P. aeruginosa (PA). Gray color of the main heatmap indicates combinations not tested due to intrinsic resistance of ancestor strain. The additional heatmap to the right depicts genes mutated in each polymyxin B-adapted line and their involvement in specific cellular processes based on KEGG (Kyoto Encyclopedia of Genes and Genomes) and COG (Clusters of Orthologous Genes) databases. The distances between antibiotics were computed using the Euclidean distance method based on the log-transformed MIC values. The clustering was performed using the complete linkage method. […] For detailed information on antibiotic and bacterial strain abbreviations, see Supplementary Data 1. Source data are provided as a Source Data file.
(§3) A robotic liquid handling system was used to automatically prepare a 11 to 16-step serial dilution in 384-well microtiter plates (Greiner). A final concentration of 5 × 10^5 bacterial cells per mL were inoculated into each well containing 60 µL MHB medium. Bacterial cultures were incubated at 37 °C with continuous shaking (Infors shaker, 900 rpm with 3 mm throw) for 18 hours (2 replicates from each). Cell growth was monitored by measuring the optical density (OD600 values, using Biotek Synergy microplate reader). MIC was defined as the antibiotic concentration of complete growth inhibition (i.e., OD600 < 0.05). Relative MIC was calculated as follows:1 relativeMIC=MICevolved/MICancestor […]
(§4) Supplementary Figure 6. Susceptibility of Polymyxin B resistant lines to other ST and DT […]
(§5) dividing the MIC of the evolved line by that of the corresponding ancestor) of 12 polymyxin B resistant lines to ST and DT permeabilizer antibiotics used in this study. Each data point represents a distinct adaptive laboratory evolved polymyxin B resistant line. Boxplots show the median, first and third quartiles, with whiskers showing the 5th and 95th percentiles. P values were calculated using Dunn's post-hoc test with Benjamini-Hochberg correction (NS indicates p > 0.05, ** / **** indicates p < 0.01 / 0.0001, respectively). The resistance level of polymyxin B resistant lines to polymyxin B (PMB), […]
(§6) For detailed information on antibiotic and bacterial strain abbreviations, see Supplementary Table 1. Source data are provided as a Source […]
(§7) (1 picture or pasted object on this page, not shown here)

[5] = system: polymyxin B-resistant lines of E. coli (EC-SEN); assay: as above; format: cell-based, Escherichia coli
Method: 3 independently evolved lines from each investigated species were studied, including E. coli (EC), K. pneumoniae (KP), A. baumannii (AB), and P. aeruginosa (PA). […] The distances between antibiotics were computed using the Euclidean distance method based on the log-transformed MIC values. The clustering was performed using the complete linkage method. […] For detailed information on antibiotic and bacterial strain abbreviations, see Supplementary Data 1. Source data are provided as a Source Data file.
as §3
Each data point represents a distinct
Boxplots show the median, first and third quartiles, with whiskers showing the 5th and 95th percentiles. P values were calculated using Dunn's post-hoc test with Benjamini-Hochberg correction (NS indicates p > 0.05, ** / **** indicates p < 0.01 […]
as §6, §7

[6] = system: polymyxin B-resistant lines of K. pneumoniae (KP-SEN); assay: as above; format: cell-based, Klebsiella pneumoniae
Excerpt: as §1, §2, §3, §4, §5, §6, §7

[7] = system: E. coli ATCC 25922 (SEN) and E. coli NCTC13846 (MDR); parameters: method as in PMID 39805953; conditions: cited from earlier work
[8] = system: mutated genes in antibiotic-adapted lines; assay: Whole genome sequencing and comparative mutational analysis of adapted lines; conditions: lines adapted in laboratory evolution
Excerpt: We focused on the resistance mechanisms of DT permeabilizers and ST permeabilizers (Fig. 5a), as these antibiotics commonly disintegrate the bacterial membrane, and therefore the resistance mechanisms may overlap.
Genes are categorized based on their cellular localization using PSORT (Protein Subcellular Localization Prediction Tool). They are further classified according to their involvement in specific metabolic or resistance pathways using the KEGG (Kyoto Encyclopedia of Genes and Genomes) and COG (Clusters of Orthologous Genes) databases.
To identify potential antibiotic resistance mutations, we selected 2 to 5 lines from the frequency-of-resistance (FoR) and adaptive laboratory evolution (ALE) experiments for whole genome sequencing. Resistant populations were grown overnight in antibiotic-free medium, and DNA was isolated using the GenElute Bacterial Genomic DNA Kit (Sigma), following the manufacturer’s instructions. DNA was eluted in 120 µl of RNAse-free water over two elution steps, and 60 µl of the eluted DNA was further concentrated using the Zymo DNA Clean and Concentrator Kit. DNA concentration was measured with a Qubit Fluorometer and set to 1 ng/µl per sample. Sequencing libraries were prepared using the Nextera XT DNA library preparation kit (Illumina) and sequenced on an Illumina NextSeq 500 platform, generating 2 × 150 bp paired-end reads.
To identify and annotate variants, sequencing reads were mapped to their corresponding reference genomes using the Burrows-Wheeler Aligner (BWA)[75]. PCR duplicates were removed using Picard Mark Duplicates (see http://broadinstitute.github.io/picard) and reads with more than 6 mismatches were discarded. Variants (SNPs and INDELs) were called with Freebayes[76] and filtered using vcffilter[77], retaining only those with a quality score above 100. Rare variants were not excluded, but potential artefacts were manually inspected using IGV[78]. Variants were annotated with SnpEf, keeping only those absent in the ancestor. Mutations appearing in more than nine lines were excluded, as these were likely present in the ancestor. […]

[9] = system: Escherichia coli, Klebsiella pneumoniae, Acinetobacter baumannii, and Pseudomonas aeruginosa; conditions: all species; cited from earlier work
[10] = PA-SEN, polymyxin B-resistant evolved line 1, MIC evolved/MIC ancestor
[11] = PA-SEN, polymyxin B-resistant evolved line 5, MIC evolved/MIC ancestor
[12] = PA-SEN, polymyxin B-resistant evolved line 7, MIC evolved/MIC ancestor
[13] = polymyxin B-resistant evolved line 1 of PA-SEN, MIC relative to ancestor
[14] = polymyxin B-resistant evolved line 5 of PA-SEN, MIC relative to ancestor
[15] = polymyxin B-resistant evolved line 7 of PA-SEN, MIC relative to ancestor
[16] = EC-SEN, polymyxin B-resistant evolved line 4, MIC evolved/MIC ancestor
[17] = EC-SEN, polymyxin B-resistant evolved line 6, MIC evolved/MIC ancestor
[18] = EC-SEN, polymyxin B-resistant evolved line 10, MIC evolved/MIC ancestor
[19] = polymyxin B-resistant evolved line 4 of EC-SEN, MIC relative to ancestor
[20] = polymyxin B-resistant evolved line 6 of EC-SEN, MIC relative to ancestor
[21] = polymyxin B-resistant evolved line 10 of EC-SEN, MIC relative to ancestor
[22] = KP-SEN, polymyxin B-resistant evolved line 1, MIC evolved/MIC ancestor
[23] = KP-SEN, polymyxin B-resistant evolved line 3, MIC evolved/MIC ancestor
[24] = KP-SEN, polymyxin B-resistant evolved line 7, MIC evolved/MIC ancestor
[25] = polymyxin B-resistant evolved line 1 of KP-SEN, MIC relative to ancestor
[26] = polymyxin B-resistant evolved line 3 of KP-SEN, MIC relative to ancestor
[27] = polymyxin B-resistant evolved line 7 of KP-SEN, MIC relative to ancestor

Compound | Relative MIC [4, 10] | Relative MIC [4, 11] | Relative MIC [4, 12] | Relative MIC [4, 13] | Relative MIC [4, 14] | Relative MIC [4, 15] | Relative MIC [5, 16] | Relative MIC [5, 17] | Relative MIC [5, 18] | Relative MIC [5, 19] | Relative MIC [5, 20] | Relative MIC [5, 21] | Relative MIC [6, 22] | Relative MIC [6, 23] | Relative MIC [6, 24] | Relative MIC [6, 25] | Relative MIC [6, 26] | Relative MIC [6, 27] | overlap in the set of mutated genes associated with ST permeabilizers [8] | also measured
Nc1nc(-n2cc(C(=O)O)c(=O)c3cc(F)c(N4CC(O)C4)c(Cl)c32)c(F)cc1F [Delafloxacin] |  |  |  |  |  |  |  |  |  |  |  |  |  |  |  |  |  |  |  | MIC [1]: 0.0156 µg/mL
CC[C@H](C)CCCCC(=O)N[C@@H](CCN)C(=O)N[C@H](C(=O)N[C@@H](CCN)C(=O)N[C@H]1CCNC(=O)[C@H]([C@@H](C)O)NC(=O)[C@H](CCN)NC(=O)[C@H](CCN)NC(=O)[C@H](CC(C)C)NC(=O)[C@@H](Cc2ccccc2)NC(=O)[C@H](CCN)NC1=O)[C@@H](C)O [Polymyxin B] (X2-[Dab]T[Dab][Dab][Dab][dF]L[Dab][Dab]T; lactam 4-C (inferred); N-terminus assumed) | 32 | 32 | 8 | 32 | 32 | 8 | 64 | 32 | 32 | 64 | 32 | 32 | 32 | 64 | 64 | 32 | 64 | 64 |  | resistance level (relative MIC) after FoR assay [2]: no resistant mutants emerged; increase in resistance level after adaptive laboratory evolution [3]: 32 fold; resistance level (relative MIC) after FoR assay ([7]; multidrug-resistant E. coli strain): no resistant mutants emerged
CC(C)c1ccc(Cn2ccc3c4c(N)nc(NC5CC5)nc4ccc32)cc1 [SCH79797] |  |  |  |  |  |  | 1 | 1 | 1 | 1 | 1 | 1 | 1 | 1 | 1 | 1 | 1 | 1 | 0.6% | average increment in resistance level (relative MIC) after FoR assay [9]: less than fourfold
CC(C)C[C@@H]1NC(=O)[C@@H](Cc2ccccc2)NC(=O)[C@H](CCN)NC(=O)[C@@H](NC(=O)[C@H](CN)NC(=O)[C@@H](NC(=O)C[C@H](CN)c2cccc(Cl)c2)[C@@H](C)O)CCNC(=O)[C@H]([C@@H](C)O)NC(=O)[C@H](CCN)NC(=O)[C@H](CCN)NC1=O [SPR206] (X1-T[Dap][Dab][Dab][dF]L[Dab][Dab]T; lactam 3-C (inferred); N-terminus assumed) | 64 | 64 | 32 | 64 | 64 | 32 | 32 | 64 | 64 | 32 | 64 | 64 | 32 | 128 | 128 | 32 | 128 | 128 |  | resistance level (relative MIC) after FoR assay [2]: more than 128 fold; increase in resistance level after adaptive laboratory evolution [3]: 32 fold; resistance level (relative MIC) after FoR assay ([7]; E. coli sensitive strain): more than 128 fold
POL7306 | 1 | 1 | 4 | 1 | 1 | 4 | 1 | 2 | 2 | 1 | 2 | 2 | 1 | 32 | 32 | 1 | 32 | 32 | 8.12% | 
Tridecaptin M152-P3 |  |  |  |  |  |  |  |  |  |  |  |  |  |  |  |  |  |  | 2.5% | 
colistin | 32 | 32 | 16 | 32 | 32 | 16 |  | 32 | 32 |  | 32 | 32 | 32 | 64 | 32 | 32 | 64 | 32 |  | 
